The source of these data is ChEMBL document CHEMBL1250448, “Inhibitor hijacking of Akt activation” (Nat Chem Biol, 2009).

Calls of active or inactive are those of the source. No cut-off for these calls is given here.

One assay has as its system PC-3. Nature of the assay: Induction of myristoylated AKT2 M225G mutant Thr308 hyperphosphorylation expressed in PC3 cells at 2.5 uM after 30 mins by immunoblotting. It is filed as cell-based. (In general: Immunoblotting shows a protein as a band on a membrane.)
Assay [1] deals with RAC-alpha serine/threonine-protein kinase (Homo sapiens), P31749 [M227G,D292A]. Nature of the assay: Induction of myristoylated AKT1 M227G and kinase dead D292A mutant Ser473 hyperphosphorylation expressed in MCF7 cells at 2.5 uM after 30 mins by immunoblotting. It is filed as cell-based.
Sequence of RAC-alpha serine/threonine-protein kinase (Homo sapiens), P31749 [M227G,D292A] (P31749 whole entry M227G/D292A): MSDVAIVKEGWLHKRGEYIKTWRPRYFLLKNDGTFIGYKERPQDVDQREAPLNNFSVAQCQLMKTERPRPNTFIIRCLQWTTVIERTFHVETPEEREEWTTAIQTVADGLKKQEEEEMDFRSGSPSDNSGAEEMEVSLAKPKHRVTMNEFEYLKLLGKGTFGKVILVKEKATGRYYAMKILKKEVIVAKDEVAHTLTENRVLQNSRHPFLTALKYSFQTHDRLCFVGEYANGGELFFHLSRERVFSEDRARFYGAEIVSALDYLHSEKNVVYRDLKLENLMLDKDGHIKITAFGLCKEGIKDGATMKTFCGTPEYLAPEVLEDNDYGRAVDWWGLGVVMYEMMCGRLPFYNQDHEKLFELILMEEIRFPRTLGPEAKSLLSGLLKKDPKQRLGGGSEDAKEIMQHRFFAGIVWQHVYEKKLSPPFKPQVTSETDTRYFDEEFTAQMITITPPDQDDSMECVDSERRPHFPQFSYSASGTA
Assay [2] concerns MCF7. Nature of the assay: Induction of myristoylated AKT2 M225G and kinase dead D289A mutant Ser473 hyperphosphorylation expressed in MCF7 cells at 2.5 uM after 30 mins by immunoblotting. The format is cell-based.
Assay [3] relates to RAC-alpha serine/threonine-protein kinase (Homo sapiens), P31749 [M227G,D292A]. Nature of the assay: Induction of myristoylated AKT1 M227G and kinase dead D292A mutant Ser473 hyperphosphorylation expressed in MiaPaCa2 cells at 2.5 uM after 30 mins by immunoblotting. It is filed as cell-based.
The test system of the next assay is MiaPaCa2. Nature of the assay: Induction of myristoylated AKT2 M225G and kinase dead D289A mutant Ser473 hyperphosphorylation expressed in MiaPaCa2 cells at 2.5 uM after 30 mins by immunoblotting. The format is cell-based.
Assay [4] relates to RAC-alpha serine/threonine-protein kinase (Homo sapiens), P31749 [M227G]. Briefly: Induction of myristoylated AKT1 M227G Ser473 hyperphosphorylation expressed in MCF7 cells at 2.5 uM after 30 mins by immunoblotting. It is filed as cell-based.
Sequence of RAC-alpha serine/threonine-protein kinase (Homo sapiens), P31749 [M227G] (P31749 whole entry M227G): as the sequence (P31749 whole entry M227G/D292A) above, with A292D counted along it
The test system is the same in assay [5]. Nature of the assay: Induction of myristoylated AKT1 M227G Ser473 hyperphosphorylation expressed in PC3 cells at 2.5 uM after 30 mins by immunoblotting. The format is cell-based. The following applies: PC-3.
The test system is the same in assay [6]. Nature of the assay: Induction of myristoylated AKT1 M227G Ser473 hyperphosphorylation expressed in HEK293 cells coexpressing flag-tagged wild type AKT1 after 30 mins by immunoblotting. It is filed as cell-based.
Assay [7] shares this test system. Briefly: Induction of flag tagged AKT1 M227G Thr308 hyperphosphorylation expressed in HEK293 cells at 2.5 uM after 30 mins by immunoblotting. The format is cell-based.
For assay [8] the test system is unchanged. Nature of the assay: Induction of myristoylated AKT1 M227G mutant Ser473 hyperphosphorylation expressed in HEK293T cells at 2.5 uM after 30 mins by immunoblotting. To be noted: HEK-293T. It is filed as cell-based.
Assay [9] deals with HEK-293T. Briefly: Induction myristoylated AKT2 M225G mutant Ser473 hyperphosphorylation expressed in HEK293T cells at 2.5 uM after 30 mins by immunoblotting. The format is cell-based.
The subject of assay [10] is HEK-293T. Nature of the assay: Induction of myristoylated AKT3 M229G mutant Ser473 hyperphosphorylation expressed in HEK293T cells at 2.5 uM after 30 mins by immunoblotting. It is filed as cell-based.
Assay [11] concerns RAC-alpha serine/threonine-protein kinase (Homo sapiens), P31749 [M227G]. Briefly: Induction of myristoylated AKT1 M227G mutant Thr308 hyperphosphorylation expressed in HEK293T cells at 2.5 uM after 30 mins pretreated with pan-PI3K inhibitor PIK90 for 10 mins before compound addition by immunoblotting. The following applies: HEK-293T. The format is cell-based.
Assay [12] deals with HEK-293T. Briefly: Induction myristoylated AKT2 M225G mutant Thr308 hyperphosphorylation expressed in HEK293T cells at 2.5 uM after 30 mins pretreated with pan-PI3K inhibitor PIK90 for 10 mins before compound addition by immunoblotting. The format is cell-based.
Assay [13] has as its system HEK-293T. Briefly: Induction of myristoylated AKT3 M229G mutant Ser473 hyperphosphorylation expressed in HEK293T cells at 2.5 uM after 30 mins pretreated with pan-PI3K inhibitor PIK90 for 10 mins before compound addition by immunoblotting. The format is cell-based.
Assay [14] deals with RAC-alpha serine/threonine-protein kinase (Homo sapiens), P31749 [M227G,R25C]. Nature of the assay: Induction of myristoylated AKT1 M227G and R25C mutant Ser473 hyperphosphorylation expressed in HEK293T cells at 2.5 uM after 30 mins by immunoblotting. It is filed as cell-based. The following applies: HEK-293T.
Sequence of RAC-alpha serine/threonine-protein kinase (Homo sapiens), P31749 [M227G,R25C] (P31749 whole entry R25C/M227G): as the sequence (P31749 whole entry M227G/D292A) above, with R25C, A292D counted along it
Assay [15] relates to RAC-alpha serine/threonine-protein kinase (Homo sapiens), P31749 [M227G]. Nature of the assay: Induction of myristoylated AKT1 M227G mutant Thr308 hyperphosphorylation expressed in HEK293T cells at 2.5 uM after 30 mins pretreated with PDK1 inhibitor BX-795 for 10 mins before compound addition by immunoblotting. It is filed as cell-based. The following applies: HEK-293T.
The subject of assay [16] is HEK-293T. Nature of the assay: Induction myristoylated AKT2 M225G mutant Ser473 hyperphosphorylation expressed in HEK293T cells at 2.5 uM after 30 mins pretreated with PDK1 inhibitor BX-795 for 10 mins before compound addition by immunoblotting. It is filed as cell-based.
Assay [17] relates to HEK-293T. Nature of the assay: Induction of myristoylated AKT3 M229G mutant Thr308 hyperphosphorylation expressed in HEK293T cells at 2.5 uM after 30 mins pretreated with PDK1 inhibitor BX-795 for 10 mins before compound addition by immunoblotting. It is filed as cell-based.
Assay [18] has as its system HEK-293T. Nature of the assay: Induction of myristoylated AKT3 M229G mutant Ser473 hyperphosphorylation expressed in HEK293T cells at 2.5 uM after 30 mins pretreated with PDK1 inhibitor BX-795 for 10 mins before compound addition by immunoblotting. The format is cell-based.
In assay [19] the test system is RAC-alpha serine/threonine-protein kinase (Homo sapiens), P31749 [M227G]. Briefly: Induction of myristoylated AKT1 M227G mutant Ser473 hyperphosphorylation expressed in HEK293T cells at 2.5 uM after 30 mins pretreated with mTOR kinase inhibitor PP242 for 10 mins before compound addition by immunoblotting. The format is cell-based. To be noted: HEK-293T.
Assay [20] deals with HEK-293T. Briefly: Induction of myristoylated AKT3 M229G mutant Ser473 hyperphosphorylation expressed in HEK293T cells at 2.5 uM after 30 mins pretreated with mTOR kinase inhibitor PP242 for 10 mins before compound addition by immunoblotting. It is filed as cell-based.
Assay [21] concerns HEK-293T. Briefly: Induction of myristoylated AKT2 M225G and kinase dead D289A mutant Thr308 hyperphosphorylation expressed in HEK293T cells at 2.5 uM after 30 mins by immunoblotting. It is filed as cell-based.
In assay [22] the test system is RAC-alpha serine/threonine-protein kinase (Homo sapiens), P31749 [M227G,D292A]. Briefly: Induction of myristoylated AKT1 M227G and kinase dead D292A mutant Thr308 hyperphosphorylation expressed in MCF7 cells at 2.5 uM after 30 mins by immunoblotting. The format is cell-based.
Assay [23] concerns MCF7. Briefly: Induction of myristoylated AKT2 M225G mutant Thr308 hyperphosphorylation expressed in MCF7 cells at 2.5 uM after 30 mins by immunoblotting. It is filed as cell-based.
Assay [24] deals with RAC-alpha serine/threonine-protein kinase (Homo sapiens), P31749 [M227G]. Nature of the assay: Induction of myristoylated AKT1 M227G Thr308 hyperphosphorylation expressed in MiaPaCa2 cells at 2.5 uM after 30 mins by immunoblotting. It is filed as cell-based.
Assay [25] addresses T1, RAC-alpha serine/threonine-protein kinase (Homo sapiens, UniProt P31749). Briefly: Induction of flag-tagged wild type AKT1 Ser473 hyperphosphorylation expressed in HEK293 cells coexpressing HA-tagged AKT1 M227G after 30 mins by immunoblotting.
The target in assay [26] is T1, RAC-alpha serine/threonine-protein kinase. Briefly: Induction of flag-tagged wild type AKT1 Thr308 hyperphosphorylation expressed in HEK293 cells coexpressing HA-tagged AKT1 M227G after 30 mins by immunoblotting.
The test system of assay [27] is RAC-alpha serine/threonine-protein kinase (Homo sapiens), P31749 [M227G]. Nature of the assay: Induction of AKT1 M227G Ser473 hyperphosphorylation expressed in HEK293 cells at 2.5 uM after 30 mins pretreated with allosteric AKT inhibitor Akti-1,2 10 mins before compound addition by immunoblotting.
For assay [28], the target named is RAC-alpha serine/threonine-protein kinase (Rattus norvegicus) (UniProt P47196). Briefly: Induction AKT1 Thr308 hyperphosphorylation in insulin-induced rat L6 cells after 20 mins before insulin stimulation by immunoblotting. The format is cell-based.
Sequence of RAC-alpha serine/threonine-protein kinase (Rattus norvegicus) (P47196 whole entry): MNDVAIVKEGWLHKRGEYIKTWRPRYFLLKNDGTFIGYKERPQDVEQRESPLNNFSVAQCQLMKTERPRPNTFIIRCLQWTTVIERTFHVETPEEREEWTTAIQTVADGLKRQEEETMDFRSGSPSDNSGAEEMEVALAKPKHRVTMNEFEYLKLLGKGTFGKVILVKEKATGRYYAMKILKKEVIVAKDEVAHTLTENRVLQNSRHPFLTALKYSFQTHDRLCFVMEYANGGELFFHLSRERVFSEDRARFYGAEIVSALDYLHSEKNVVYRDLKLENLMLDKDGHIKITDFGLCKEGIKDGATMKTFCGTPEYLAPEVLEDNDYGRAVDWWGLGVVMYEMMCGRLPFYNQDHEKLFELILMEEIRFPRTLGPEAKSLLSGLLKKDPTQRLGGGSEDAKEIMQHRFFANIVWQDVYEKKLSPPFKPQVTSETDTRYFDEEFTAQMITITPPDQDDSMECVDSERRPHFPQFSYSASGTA
The target is the same in assay [29]. Briefly: Induction AKT1 Ser473 hyperphosphorylation in insulin-induced rat L6 cells after 20 mins before insulin stimulation by immunoblotting. It is filed as cell-based.

T1 sequence (P31749 whole entry): as the sequence (P31749 whole entry M227G/D292A) above, with G227M, A292D counted along it

`CCCc1cc(-c2cncc(OC[C@@H](N)Cc3c[nH]c4ccccc34)c2)cc2c(C)n[nH]c12`: the outcome (with PC-3; in [1]; in the assay on MCF7 [2]; in assay [3]; in the assay with MiaPaCa2; in [4]) was Active. Also, the outcome (in [5]; in [6]; in [7]; in [8]; with HEK-293T [9]; in the assay on HEK-293T [10]) was Active. The outcome (in the assay with HEK-293T [21]; in assay [22]; in the assay on MCF7 [23]; in assay [24]) was Active. Moreover, the result (in assay [11]; in the assay with HEK-293T [12]; in the assay on HEK-293T [13]; in [14]; in [15]; in the assay with HEK-293T [16]) was inactive. Also, the outcome (in the assay on HEK-293T [17]; in the assay on HEK-293T [18]; in assay [19]; with HEK-293T [20]; in [25]; in [26]) was inactive. Besides, the outcome in assay [27] was inactive.
Consider `COc1ccccc1N1CCN(c2ncnc3[nH]nc(Br)c23)CC1`, for which the outcome in assay [28] and in assay [29] was inactive.
